In patent publication US20260232713A1, “PLECOMACROLIDE DERIVATIVES FOR MHC-I NEF DOWNMODULATION” (priority 2022, published 2026):
Where “and” joins values, the source holds several entries; their conditions need not be identical. Equal values may be shown once. Read-outs that look alike come from different tables or passages of the source.

Assays:
V-ATPase = target: T1, V-ATPase (Homo sapiens, UniProt P27449); assay: Lysosomal acidification (Lysotracker mean fluorescence intensity) as indicator of V-ATPase activity in primary CD4+ T cells; format: cell-based
T1 construct: endogenous in cells; host or cells: primary CD4+ T cells (HIV ΔGPE infected) from donor PBMCs
Experimental: (§1) Inhibition of HIV-Nef was measured by assessing its capacity to downmodulate MHC-I HLA-A2 on the surface of primary CD4+ T cells 24-hours after treatment with each compound. V-ATPase inhibition was assessed at the same time point using lysosomal acidification as an indicator of V-ATPase activity. This was measured using a flow cytometric assay that quantified Lysotracker mean fluorescence intensity as previously described (Painter et al., 2020). Cell viability was measured at 24-hour and 72-hour time points using a previously described flow cytometric assay (Painter et al., 2020).
(§2) Anonymized leukocytes isolated by apheresis were obtained from New York Blood Center and peripheral blood mononuclear cells (PBMCs) were isolated by Ficoll-Paque Plus (17144002; GE Healthcare) centrifugation using SepMate tubes (85450; StemCell Technologies) according to the manufacturers protocol. […] Then, 20-24 hours post-PHA activation, 15 mL of R10/PHA medium is removed and replaced with 5 mL of R10+100u/mL Recombinant Human IL-2 (202|L010; R&D Systems). 48 hours after IL-2 stimulation, primary CD4^+ T cells were infected via spinoculation with previously described HIV ΔGPE construct.
(§3) 48 hours after spinoculation, cells were pooled and plated in flat bottom 96-well plate. […] Compounds were thawed at room temperature and diluted in R10 medium to 2× starting concentration.
(§4) All ΔGPE infected cells were collected 24 hours after treatment.
(§5) All statistical analyses were performed using GraphPad Prism software. Curves were generated using GraphPad Prism software using [Inhibitor] vs. response with variable slope (four parameters).

primary CD4+ T cells = assay: in vitro; conditions: for CC50: read-out: Viability (TC50), mock primary CD4+ T cells, 72 hours after treatment; for Viability:Nef (therapeutic window separating Nef IC50 and TC50): ratio TC50 to Nef IC50
Experimental: as §1, §2, §3, §4
(§6) All Mock cells were collected 72 hours after treatment.
as §5

in vitro = conditions: human
Experimental: as §1, §2, §3, §4, §6, §5

[1] = Lysotracker Red, ΔGPE infected primary CD4+ T cells, 24 hours after treatment, read-out: Lysotracker (V-ATPase IC50, lysosomal neutralization)

T1 sequence (P27449 whole entry, looked up): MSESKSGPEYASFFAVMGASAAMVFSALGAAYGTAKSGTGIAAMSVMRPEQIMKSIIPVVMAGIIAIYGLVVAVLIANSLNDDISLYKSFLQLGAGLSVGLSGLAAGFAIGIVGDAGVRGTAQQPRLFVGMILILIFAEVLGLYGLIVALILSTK

| Molecule | IC50 (V-ATPase; [1]) | Viability:Nef (therapeutic window separating Nef IC50 and TC50) (primary CD4+ T cells) | IC50 (V-ATPase) | CC50 (in vitro) | also measured |
| --- | --- | --- | --- | --- | --- |
| 23-OH-tylactone [Compound S46, reference compound] | > 1000 nM |  |  |  | CC50 (primary CD4+ T cells): > 1000 nM |
| CC[C@H]1OC(=O)[C@H](C)[C@@H](O)[C@@H](C)C[C@@H](C)C(=O)/C=C/[C@H]1C [10-deoxymethynolide, reference compound] | 1720 nM | 0.39 fold |  |  | CC50 at 72 h (in vitro): 140 nM |
| CC=CC1OC(O)(C(C)C(O)C(C)C2OC(=O)C(OC)=CC(C)=CC(C)C(O)C(CC)C(O)C(C)CC(C)=CC=CC2OC)CC(OC2CC(O)C(OC(N)=O)C(C)O2)C1C (stereo not shown) [Compound 1, Concanamycin A, reference compound] |  | 6.6 fold | 1.7 nM | 1.3 nM |  |
| CC=CC1OC(O)(C(C)C(O)C(C)C2OC(=O)C(OC)=CC(C)=CC(C)C(O)C(C)C(O)C(C)CC(C)=CC=CC2OC)CC(OC2CC(O)C(OC(N)=O)C(C)O2)C1C (stereo not shown) [Compound 4, concanamycin B, reference compound] |  | 5 fold and 5.5 fold | 26 nM | 7 nM |  |
| C/C=C/[C@H]1O[C@@](O)([C@@H](C)[C@H](O)[C@H](C)[C@H]2OC(=O)/C(OC)=C/C(C)=C/[C@@H](C)[C@@H](O)[C@@H](CC)[C@@H](O)[C@H](C)C/C(C)=C/C=C/[C@@H]2OC)C[C@@H](O[C@H]2C[C@@H](O)[C@H](O)[C@@H](C)O2)[C@@H]1C [Compound 5, concanamycin C, reference compound] | 3.7 nM | 2.3 fold |  |  | CC50 (primary CD4+ T cells): 1.3 nM |
| C/C=C/[C@H]1O[C@@](O)([C@@H](C)[C@H](O)[C@H](C)[C@H]2OC(=O)/C(OC)=C/C(C)=C/[C@@H](C)[C@@H](O)[C@@H](CC)[C@@H](O)[C@H](C)C/C(C)=C/C=C/[C@@H]2OC)C[C@@H](O)[C@@H]1C [Compound 6, Concanamycin F] |  |  | 5.8 nM | 2.9 nM |  |
| C/C=C/[C@H]1O[C@@](O)([C@@H](C)[C@H](O)[C@H](C)[C@H]2OC(=O)/C(OC)=C/C(C)=C/[C@@H](C)[C@@H](O)[C@@H](C)[C@@H](O)[C@H](C)C/C(C)=C/C=C/[C@@H]2OC)C[C@@H](O)[C@@H]1C [Compound 7, Concanamycin X] |  |  | 38 nM | 14 nM |  |
| C/C=C/[C@H]1O[C@@](O)([C@@H](C)[C@H](O)[C@H](C)[C@H]2OC(=O)/C(OC)=C/C(C)=C/[C@@H](C)[C@@H](O)[C@@H](CC)[C@@H](O)[C@H](C)C/C(C)=C/C=C/[C@@H]2OC)C[C@@H](O[C@@H]2C[C@H](OC(=O)CCCC)[C@@H](OC(N)=O)[C@H](C)O2)[C@@H]1C [Compound 8, 3-pentanoate Concanamycin A] |  | 4.8 fold | 11 nM | 3.5 nM |  |
| C/C=C/[C@H]1O[C@@](O)([C@@H](C)[C@H](O)[C@H](C)[C@H]2OC(=O)/C(OC)=C/C(C)=C/[C@@H](C)[C@@H](O)[C@@H](C)[C@@H](O)[C@H](C)C/C(C)=C/C=C/[C@@H]2OC)C[C@@H](O[C@@H]2C[C@H](OC(=O)CCCC)[C@@H](OC(N)=O)[C@H](C)O2)[C@@H]1C [Compound 9, 3-pentanoate Concanamycin B] |  | 7.9 fold | 110 nM | 27 nM |  |
| C/C=C/[C@H]1O[C@@](O)([C@@H](C)[C@H](O)[C@H](C)[C@H]2OC(=O)/C(OC)=C/C(C)=C/[C@@H](C)[C@@H](O)[C@@H](C)[C@@H](OC(=O)CCCC)[C@H](C)C/C(C)=C/C=C/[C@@H]2OC)C[C@@H](O[C@@H]2C[C@H](OC(=O)CCCC)[C@@H](OC(N)=O)[C@H](C)O2)[C@@H]1C [Compound 10, 3′,9-Dipentanoate Concanamycin B] |  | 5.8 fold | 130 nM | 35 nM |  |
| C/C=C/[C@H]1O[C@@](O)([C@@H](C)[C@H](O)[C@H](C)[C@H]2OC(=O)/C(OC)=C/C(C)=C/[C@@H](C)[C@@H](O)[C@@H](C)[C@@H](O)[C@H](C)C/C(C)=C/C=C/[C@@H]2OC)C[C@@H](O[C@@H]2C[C@H](OC(=O)CCCCCCCC)[C@@H](OC(N)=O)[C@H](C)O2)[C@@H]1C [Compound 11, 3-nonanoate Concanamycin B] |  | 4.3 fold | 170 nM | 36 nM |  |
| C/C=C/[C@H]1O[C@@](O)([C@@H](C)[C@H](O)[C@H](C)[C@H]2OC(=O)/C(OC)=C/C(C)=C/[C@@H](C)[C@@H](O)[C@@H](C)[C@@H](O)[C@H](C)C/C(C)=C/C=C/[C@@H]2OC)C[C@@H](O[C@@H]2C[C@H](OC(C)=O)[C@@H](OC(N)=O)[C@H](C)O2)[C@@H]1C [Compound 12, 3′-Acetyl Concanamycin B] |  | 8 fold and 8.0 fold | 20 nM | 5.3 nM |  |
| C/C=C/[C@H]1O[C@@](O)([C@@H](C)[C@H](O)[C@H](C)[C@H]2OC(=O)/C(OC)=C/C(C)=C/[C@@H](C)[C@@H](O)[C@@H](C)[C@@H](OC(C)=O)[C@H](C)C/C(C)=C/C=C/[C@@H]2OC)C[C@@H](O[C@@H]2C[C@H](OC(C)=O)[C@@H](OC(N)=O)[C@H](C)O2)[C@@H]1C [Compound 13, 3′,9-Diacetyl CMB] |  | 8.8 fold | 38 nM | 8 nM |  |
| C/C=C/[C@H]1O[C@@](O)([C@@H](C)[C@H](O)[C@H](C)[C@H]2OC(=O)/C(OC)=C/C(C)=C/[C@@H](C)[C@@H](O)[C@@H](CC)[C@@H](O)[C@H](C)C/C(C)=C/C=C/[C@@H]2OC)C[C@@H](O[C@@H]2C[C@H](OC(C)=O)[C@@H](OC(N)=O)[C@H](C)O2)[C@@H]1C [Compound 14, 3′-Acetyl CMA] |  | 8.5 fold | 3.7 nM | 1.6 nM |  |
| C/C=C/[C@H]1O[C@@](O)([C@@H](C)[C@H](O)[C@H](C)[C@H]2OC(=O)/C(OC)=C/C(C)=C/[C@@H](C)[C@@H](O)[C@@H](CC)[C@@H](OC(C)=O)[C@H](C)C/C(C)=C/C=C/[C@@H]2OC)C[C@@H](O[C@@H]2C[C@H](OC(C)=O)[C@@H](OC(N)=O)[C@H](C)O2)[C@@H]1C [Compound 15, 3′,9-diacetyl CMA] |  | 11 fold | 7.9 nM | 3.9 nM |  |
| COc1cc2c(O)c3c(c(-c4ccc5c(c4)OCO5)c2cc1OC)C(=O)OC3 [Compound S1, Diphyllin, reference compound] | > 1000 nM |  |  |  | CC50 at 72 h (in vitro): > 1000 nM |
| C[C@@H]1C[C@H](C)C[C@H](C)[C@@H](O)CC(=O)O[C@H]([C@@H]2CCC[C@H]2C(=O)O)C/C=C/C=C(/C#N)[C@H](O)[C@@H](C)C1 [Compound S2, Borrelidin, reference compound] |  | 2.0 fold | 165 nM |  | CC50 at 72 h (in vitro; mock-infected primary CD4+ T cells): 91 nM; Toxicity at 24 hours (primary CD4+ T cells; 24-hour time point): toxic at 24-hours |
| C=CC(C)C(OC(=O)[C@@H](C)[C@H](O)[C@H](C)[C@H]1OC(=O)/C(OC)=C/C(C)=C/[C@@H](C)[C@@H](O)[C@@H](C)C/C(C)=C/C=C/[C@@H]1OC)C(C)C (stereo partly shown) [Compound S8] |  |  | > 1000 nM | 520 nM |  |
| CO/C1=C\C(C)=C\[C@@H](C)[C@@H](O)[C@@H](C)C/C(C)=C/C=C/[C@H](OC)[C@@H]([C@@H](C)[C@@H](O)[C@H](C)[C@@]2(O)C[C@@H](OC(=O)c3ccccc3)[C@H](C)[C@@H](C(C)C)O2)OC1=O [Compound S13] |  |  | 140 nM | 130 nM |  |
| CO[C@H]1/C=C/O[C@@]2(C)Oc3c(C)c(O)c4c(O)c(c(/C=N/N5CCN(C)CC5)c(O)c4c3C2=O)NC(=O)/C(C)=C\C=C\[C@H](C)[C@H](O)[C@@H](C)[C@@H](O)[C@@H](C)[C@H](OC(C)=O)[C@@H]1C [Compound S26, Rifampicin, reference compound] | > 1000 nM |  |  |  | CC50 at 72 h (in vitro): > 1000 nM |
| CCC1OC(=O)C(C)C(OC2OC(C)CC(N(C)C)C2O)C(C)CC(C)C(=O)C=CC1C (stereo not shown) [Compound S30, YC-17, reference compound] | > 1000 nM |  |  |  | CC50 at 72 h (in vitro): > 1000 nM |
| CC[C@H]1OC(=O)[C@H](C)[C@@H](O[C@H]2C[C@@](C)(OC)[C@@H](O)[C@H](C)O2)[C@H](C)[C@@H](O[C@@H]2O[C@H](C)C[C@H](N(C)C)[C@H]2O)[C@](C)(O)C[C@@H](C)C(=O)[C@H](C)[C@@H](O)[C@H]1C [Compound S32, Erythromycin B, reference compound] | > 1000 nM |  |  |  | CC50 at 72 h (in vitro): > 1000 nM |
| CC[C@H]1OC(=O)[C@H](C)C(=O)[C@H](C)[C@@H](O[C@@H]2O[C@H](C)C[C@H](N(C)C)[C@H]2O)[C@@H](C)C[C@@H](C)C(=O)/C=C/[C@H]1C [Compound S33, Narbomycin, reference compound] | > 1000 nM |  |  |  | CC50 at 72 h (in vitro): > 1000 nM |
| CC1=CC[C@H]2O[C@]1(C)O[C@H]([C@H](C)/C=C(C)/C=C/C(O)=C1/C(=O)CNC1=O)[C@H]2C [Tirandamycin C, reference compound] |  |  | > 1000 nM | > 1000 nM |  |
| Des-tylactone [Compound S47, reference compound] | > 1000 nM |  |  |  | CC50 (primary CD4+ T cells): > 1000 nM |
